Experimental data published in ChEMBL document CHEMBL3526122, “Identification of UDP-glucuronosyltransferases responsible for the glucuronidation of darexaban, an oral factor Xa inhibitor, in human liver and intestine” (Drug Metab Dispos, 2012).

Columns and labels:
[1] = target: T1, UDP-glucuronosyltransferase 1A10 (Homo sapiens, UniProt Q9HAW8); assay: Ratio of Ki to Km for human recombinant UGT1A10 expressed in baculovirus-infected insect cells; assay type: ADME; conditions: recombinant enzyme
T1 sequence (Q9HAW8 whole entry): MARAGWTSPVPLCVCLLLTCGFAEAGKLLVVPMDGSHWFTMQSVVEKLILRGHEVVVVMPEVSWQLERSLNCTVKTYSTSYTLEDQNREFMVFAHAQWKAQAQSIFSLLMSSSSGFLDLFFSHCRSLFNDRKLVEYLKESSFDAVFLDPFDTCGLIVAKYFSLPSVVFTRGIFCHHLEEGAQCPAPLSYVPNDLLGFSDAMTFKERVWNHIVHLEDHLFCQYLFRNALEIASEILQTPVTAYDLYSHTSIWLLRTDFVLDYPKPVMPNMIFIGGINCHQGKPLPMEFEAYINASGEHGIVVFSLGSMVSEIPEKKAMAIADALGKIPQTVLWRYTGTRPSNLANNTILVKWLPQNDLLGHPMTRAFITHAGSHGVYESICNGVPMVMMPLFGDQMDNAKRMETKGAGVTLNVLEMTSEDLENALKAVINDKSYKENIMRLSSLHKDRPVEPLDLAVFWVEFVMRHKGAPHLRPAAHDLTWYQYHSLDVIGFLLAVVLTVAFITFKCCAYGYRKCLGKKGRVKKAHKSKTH

[2] = target: T2, UDP-glucuronosyltransferase 1A9 (Homo sapiens, UniProt O60656); assay: Activity of recombinant human UGT1A9 expressed in baculovirus-infected insect cells assessed as enzyme-mediated glucuronidation per mg of protein after 5 mins in presence of UDPGA; assay type: ADME
T2 sequence (O60656 whole entry): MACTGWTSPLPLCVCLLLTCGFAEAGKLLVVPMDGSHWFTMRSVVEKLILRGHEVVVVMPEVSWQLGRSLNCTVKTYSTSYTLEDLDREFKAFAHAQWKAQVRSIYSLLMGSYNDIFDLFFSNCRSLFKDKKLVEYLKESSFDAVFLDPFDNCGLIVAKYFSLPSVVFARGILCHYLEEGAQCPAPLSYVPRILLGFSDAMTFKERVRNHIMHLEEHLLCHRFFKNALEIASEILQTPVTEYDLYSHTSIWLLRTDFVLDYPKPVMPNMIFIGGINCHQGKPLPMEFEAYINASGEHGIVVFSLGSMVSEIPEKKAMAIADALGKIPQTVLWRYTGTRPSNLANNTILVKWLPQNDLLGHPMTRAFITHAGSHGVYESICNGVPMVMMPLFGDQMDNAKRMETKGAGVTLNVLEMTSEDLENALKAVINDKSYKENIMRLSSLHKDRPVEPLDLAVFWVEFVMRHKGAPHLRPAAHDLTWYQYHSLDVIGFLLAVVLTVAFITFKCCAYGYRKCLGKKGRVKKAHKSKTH

[3] = target: T2, UDP-glucuronosyltransferase 1A9; assay: Activity of human recombinant UGT1A9 expressed in baculovirus-infected insect cells assessed as unbound intrinsic clearance for enzyme-mediated glucuronidation per mg of protein after 5 mins by Michaelis-Menten plot analysis in presence of UDPGA and 0.5% fatty acid free BSA; assay type: ADME
Liver microsome [4] = assay: Unbound intrinsic clearance in human liver microsomes assessed per mg of protein after 10 mins in presence of UDPGA and 2% fatty acid free BSA; assay type: ADME
[5] = Drug metabolism in human intestinal microsomes assessed as glucuronidation at 30 uM after 5 mins by LC-MS/MS analysis relative to vehicle-treated control in presence of beta-estradiol and UDPGA; assay type: ADME, Intestine, Microsome; conditions: with beta-estradiol, read-out: Drug metabolism
[6] = Drug metabolism in human intestinal microsomes assessed as glucuronidation per mg of protein after 5 mins by Michaelis-Menten plot analysis in presence of UDPGA; assay type: ADME, Intestine, Microsome
[7] = Substrate inhibition in human intestinal microsomes after 5 mins by Michaelis-Menten plot analysis in presence of UDPGA; assay type: ADME, Intestine, Microsome
[8] = target: T3, UDP-glucuronosyltransferase 1A8 (Homo sapiens, UniProt Q9HAW9); assay: Activity of human recombinant UGT1A8 expressed in baculovirus-infected insect cells assessed as enzyme-mediated glucuronidation per mg of protein after 10 mins in presence of UDPGA; assay type: ADME
T3 sequence (Q9HAW9 whole entry): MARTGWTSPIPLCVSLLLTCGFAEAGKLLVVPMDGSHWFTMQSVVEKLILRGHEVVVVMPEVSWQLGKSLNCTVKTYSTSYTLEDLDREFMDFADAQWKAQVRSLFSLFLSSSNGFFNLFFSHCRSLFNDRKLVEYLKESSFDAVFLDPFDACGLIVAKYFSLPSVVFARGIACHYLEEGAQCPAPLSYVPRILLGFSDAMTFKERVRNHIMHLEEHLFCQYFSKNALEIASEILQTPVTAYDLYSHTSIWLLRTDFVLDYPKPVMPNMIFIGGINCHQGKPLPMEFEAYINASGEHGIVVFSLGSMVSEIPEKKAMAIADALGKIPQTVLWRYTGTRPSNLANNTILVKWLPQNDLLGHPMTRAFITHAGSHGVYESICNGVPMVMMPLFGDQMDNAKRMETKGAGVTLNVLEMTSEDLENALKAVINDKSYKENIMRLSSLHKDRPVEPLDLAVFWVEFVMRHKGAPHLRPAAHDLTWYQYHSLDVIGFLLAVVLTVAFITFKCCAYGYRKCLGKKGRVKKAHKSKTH

[9] = Intrinsic clearance in human intestinal microsomes assessed per mg of protein at 1 to 250 uM after 5 mins in presence of UDPGA; assay type: ADME, Intestine, Microsome
[10] = Fraction unbound in human liver microsomes at 1 to 250 uM after 10 mins by ultrafiltration method in presence of 0.5% fatty acid free BSA; assay type: ADME
Liver microsome [11] = assay: Unbound intrinsic clearance in human liver microsomes assessed per mg of protein after 10 mins in presence of UDPGA and 0.1% fatty acid free BSA; assay type: ADME
[12] = target: T4, UDP-glucuronosyltransferase 2B15 (Homo sapiens, UniProt P54855); assay: Activity of human recombinant UGT2B15 expressed in baculovirus-infected insect cells assessed as enzyme-mediated glucuronidation per mg of protein after 10 mins in presence of UDPGA; assay type: ADME
T4 sequence (P54855 whole entry): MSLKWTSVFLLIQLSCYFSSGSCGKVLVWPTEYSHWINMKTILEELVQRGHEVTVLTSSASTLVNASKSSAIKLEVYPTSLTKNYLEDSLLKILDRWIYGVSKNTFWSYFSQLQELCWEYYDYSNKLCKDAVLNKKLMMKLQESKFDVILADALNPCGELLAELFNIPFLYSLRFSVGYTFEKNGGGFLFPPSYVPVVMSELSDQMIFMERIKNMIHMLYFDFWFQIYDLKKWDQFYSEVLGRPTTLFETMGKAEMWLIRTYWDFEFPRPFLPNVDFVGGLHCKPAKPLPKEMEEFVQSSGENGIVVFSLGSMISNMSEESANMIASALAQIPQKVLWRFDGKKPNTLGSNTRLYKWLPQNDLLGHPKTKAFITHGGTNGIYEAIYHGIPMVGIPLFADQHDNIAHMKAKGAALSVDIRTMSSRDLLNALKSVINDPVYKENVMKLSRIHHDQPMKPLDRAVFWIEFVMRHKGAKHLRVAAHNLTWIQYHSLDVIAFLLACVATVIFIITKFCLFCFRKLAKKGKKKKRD

**Q.** With `COc1ccc(C(=O)Nc2cccc(O)c2NC(=O)c2ccc(N3CCCN(C)CC3)cc2)cc1.O=C(O)CCC(=O)O` as the compound, how does the Ratio [1] read?
**A.** Its Ratio is 6.9.

**Q.** And the Drug metabolism [2]?
**A.** Its Drug metabolism is 2.43 nmol/min/mg.

**Q.** What about the CL free [3] of the same compound?
**A.** The CL free was 257 µL/min/mg.

**Q.** What about the CL free (Liver microsome [4]) of the same compound?
**A.** The CL free was 178 µL/min/mg.

**Q.** And the activity at 5 min, 30 µM [5]?
**A.** The activity at 5 min, 30 µM was 22.6%.

**Q.** And the Vmax [6]?
**A.** Its Vmax is 4.53 nmol/min/mg.

**Q.** What about the Ki [7] of the same compound?
**A.** The Ki was 463 µM.

**Q.** What about the Drug metabolism [8] of the same compound?
**A.** Its Drug metabolism is 0.393 nmol/min/mg.

**Q.** What about the clearance [9] of the same compound?
**A.** Its clearance is 166 µL/min/mg.

**Q.** What about the fraction unbound at 10 min, up to 250 µM [10] of the same compound?
**A.** The fraction unbound at 10 min, up to 250 µM was 0.517.

**Q.** What about the CL free (Liver microsome [11]) of the same compound?
**A.** The CL free was 184 µL/min/mg.

**Q.** What about the Drug metabolism [12] of the same compound?
**A.** The Drug metabolism was under 0.01 nmol/min/mg.
